# What was measured:
# Assay in all cases: Protease Inhibition Assay
# [1] = target: T1, Dimer of Gag-Pol polyprotein [489-587] (Human immunodeficiency virus 1, UniProt P04585); details: pH 4.7; 37 °C
# T1 construct: 489-587
# [2] = target: T2, Dimer of Gag-Pol polyprotein [489-587,K509R,V521I,L522F,M525I,M535I,L552P,A560V,V571A,L579M] (Human immunodeficiency virus 1, UniProt P04585, A560V/K509R/L522F/L552P/L579M/M525I/M535I/V521I/V571A); details: pH 4.7; 37 °C
# T2 construct: 489-587
# [3] = target: T3, Dimer of Gag-Pol polyprotein [489-587,K509R,V521I,L522F,M525I,L552P,A560V,V571A,I573V,L579M] (Human immunodeficiency virus 1, UniProt P04585, A560V/I573V/K509R/L522F/L552P/L579M/M525I/V521I/V571A)
# T3 construct: 489-587
# [4] = target: T4, Dimer of Gag-Pol polyprotein [489-587,K509R,V521I,L522F,M525I,I543V,L552P,A560V,V571A,I573V,L579M] (Human immunodeficiency virus 1, UniProt P04585, A560V/I543V/I573V/K509R/L522F/L552P/L579M/M525I/V521I/V571A)
# T4 construct: 489-587
# [5] = target: T5, Dimer of Gag-Pol polyprotein [489-587,K509R,V521I,L522F,M525I,M535I,I543V,L552P,A560V,V571A,I573V,L579M] (Human immunodeficiency virus 1, UniProt P04585, A560V/I543V/I573V/K509R/L522F/L552P/L579M/M525I/M535I/V521I/V571A)
# T5 construct: 489-587
# [6] = target: T6, Dimer of Gag-Pol polyprotein [489-587,K509R,V521I,L522F,M525I,I543V,L552P,A560V,V571A,L579M] (Human immunodeficiency virus 1, UniProt P04585, A560V/I543V/K509R/L522F/L552P/L579M/M525I/V521I/V571A); details: pH 4.7; 37 °C
# T6 construct: 489-587
# [7] = target: T7, Dimer of Gag-Pol polyprotein [489-587,K509R,V521I,L522F,M525I,M535I,L552P,A560V,V571A,I573V,L579M] (Human immunodeficiency virus 1, UniProt P04585, A560V/I573V/K509R/L522F/L552P/L579M/M525I/M535I/V521I/V571A)
# T7 construct: 489-587
# [8] = target: T8, Dimer of Gag-Pol polyprotein [489-587,K509R,V521I,L522F,M525I,L552P,A560V,V571A,L579M] (Human immunodeficiency virus 1, UniProt P04585, A560V/K509R/L522F/L552P/L579M/M525I/V521I/V571A); details: pH 4.7; 37 °C
# T8 construct: 489-587
structure (smiles),measurement,setting,value
Cc1ccccc1CNC(=O)[C@H]1N(C(=O)[C@@H](O)[C@H](Cc2ccccc2)NC(=O)c2cccc(O)c2C)CSC1(C)C [AG1776],Ki,[1],0.021 nM
same,Ki,[2],0.5 nM
same,Ki,[3],0.55 nM
same,Ki,[4],9.4 nM
same,Ki,[5],5.6 nM
same,Ki,[6],0.19 nM
same,Ki,[7],2.2 nM
same,Ki,[8],0.04 nM
